Experiments:
Assay type in all cases: functional
NCI-H460 [1] = assay: Growth inhibition of human NCI-H460 cells assessed as cell growth at 0.003 uM incubated for 48 hrs by sulforhodamine B assay relative to control; conditions: NCI-H460, 48 h, read-out: Activity
OVCAR-5 = assay: Growth inhibition of human OVCAR5 cells assessed as cell growth at 0.03 uM incubated for 48 hrs by sulforhodamine B assay relative to control; conditions: OVCAR-5, 48 h, read-out: Activity
COLO 205 = assay: Growth inhibition of human COLO205 cells assessed as cell growth at 30 uM incubated for 48 hrs by sulforhodamine B assay relative to control; conditions: COLO 205, 48 h, read-out: Activity
RXF 393 = assay: Growth inhibition of human RXF393 cells assessed as cell growth at 30 uM incubated for 48 hrs by sulforhodamine B assay relative to control; conditions: RXF 393, 48 h, read-out: Activity
UACC-257 = assay: Growth inhibition of human UACC257 cells assessed as cell growth at 0.03 uM incubated for 48 hrs by sulforhodamine B assay relative to control; conditions: UACC-257, 48 h, read-out: Activity
TK-10 = assay: Growth inhibition of human TK10 cells assessed as cell growth at 30 uM incubated for 48 hrs by sulforhodamine B assay relative to control; conditions: TK-10, 48 h, read-out: Activity
SN12C = assay: Growth inhibition of human SN12C cells assessed as cell growth at 0.003 uM incubated for 48 hrs by sulforhodamine B assay relative to control; conditions: read-out: Activity
A549 [2] = assay: Growth inhibition of human A549/ATCC cells assessed as cell growth at 0.03 uM incubated for 48 hrs by sulforhodamine B assay relative to control; conditions: A549, 48 h, read-out: Activity
ACHN = assay: Growth inhibition of human ACHN cells assessed as cell growth at 30 uM incubated for 48 hrs by sulforhodamine B assay relative to control; conditions: read-out: Activity
OVCAR-8 = assay: Growth inhibition of human OVCAR8 cells assessed as cell growth at 0.03 uM incubated for 48 hrs by sulforhodamine B assay relative to control; conditions: OVCAR-8, 48 h, read-out: Activity
SF-295 [3] = assay: Growth inhibition of human SF295 cells assessed as cell growth at 3 uM incubated for 48 hrs by sulforhodamine B assay relative to control; conditions: SF-295, 48 h, read-out: Activity
SF-295 [4] = assay: Growth inhibition of human SF295 cells assessed as cell growth at 30 uM incubated for 48 hrs by sulforhodamine B assay relative to control; conditions: SF-295, 48 h, read-out: Activity
786-0 [5] = assay: Growth inhibition of human 786-0 cells assessed as cell growth at 0.3 uM incubated for 48 hrs by sulforhodamine B assay relative to control; conditions: 786-0, 48 h, read-out: Activity
UACC-62 [6] = assay: Growth inhibition of human UACC62 cells assessed as cell growth at 30 uM incubated for 48 hrs by sulforhodamine B assay relative to control; conditions: UACC-62, 48 h, read-out: Activity
MCF7 = assay: Growth inhibition of human MCF7 cells assessed as cell growth at 0.3 uM incubated for 48 hrs by sulforhodamine B assay relative to control; conditions: MCF7, 48 h, read-out: Activity
SNB-75 = assay: Growth inhibition of human SNB75 cells assessed as cell growth at 30 uM incubated for 48 hrs by sulforhodamine B assay relative to control; conditions: SNB-75, 48 h, read-out: Activity
KM12 = assay: Growth inhibition of human KM12 cells assessed as cell growth at 0.03 uM incubated for 48 hrs by sulforhodamine B assay relative to control; conditions: KM12, 48 h, read-out: Activity
UO-31 [7] = assay: Growth inhibition of human UO31 cells assessed as cell growth at 0.3 uM incubated for 48 hrs by sulforhodamine B assay relative to control; conditions: UO-31, 48 h, read-out: Activity
OVCAR-3 = assay: Growth inhibition of human OVCAR3 cells assessed as cell growth at 30 uM incubated for 48 hrs by sulforhodamine B assay relative to control; conditions: OVCAR-3, 48 h, read-out: Activity
NCI-H322M = assay: Growth inhibition of human NCI-H322M cells assessed as cell growth at 0.03 uM incubated for 48 hrs by sulforhodamine B assay relative to control; conditions: read-out: Activity
DU-145 [8] = assay: Growth inhibition of human DU145 cells assessed as cell growth at 3 uM incubated for 48 hrs by sulforhodamine B assay relative to control; conditions: DU-145, 48 h, read-out: Activity
SK-MEL-2 = assay: Growth inhibition of human SK-MEL-2 cells assessed as cell growth at 0.3 uM incubated for 48 hrs by sulforhodamine B assay relative to control; conditions: SK-MEL-2, 48 h, read-out: Activity
NCI-H23 = assay: Growth inhibition of human NCI-H23 cells assessed as cell growth at 0.003 uM incubated for 48 hrs by sulforhodamine B assay relative to control; conditions: NCI-H23, 48 h, read-out: Activity
DU-145 [9] = assay: Growth inhibition of human DU145 cells assessed as cell growth at 0.01 uM incubated for 48 hrs by sulforhodamine B assay relative to control; conditions: DU-145, 48 h, read-out: Activity
MOLT-4 = assay: Growth inhibition of human MOLT4 cells assessed as cell growth at 100 uM incubated for 48 hrs by sulforhodamine B assay relative to control; conditions: MOLT-4, 48 h, read-out: Activity
A549 [10] = assay: Growth inhibition of human A549/ATCC cells assessed as cell growth at 10 uM incubated for 48 hrs by sulforhodamine B assay relative to control; conditions: A549, 48 h, read-out: Activity
NCI-H460 [11] = assay: Growth inhibition of human NCI-H460 cells assessed as cell growth at 0.01 uM incubated for 48 hrs by sulforhodamine B assay relative to control; conditions: NCI-H460, 48 h, read-out: Activity
Malme-3M = assay: Growth inhibition of human MALME-3M cells assessed as cell growth at 0.1 uM incubated for 48 hrs by sulforhodamine B assay relative to control; conditions: read-out: Activity
HCT-116 = assay: Growth inhibition of human HCT116 cells assessed as cell growth at 1 uM incubated for 48 hrs by sulforhodamine B assay relative to control; conditions: HCT-116, 48 h, read-out: Activity
UO-31 [12] = assay: Growth inhibition of human UO31 cells assessed as cell growth at 1 uM incubated for 48 hrs by sulforhodamine B assay relative to control; conditions: UO-31, 48 h, read-out: Activity
LOX IMVI = assay: Growth inhibition of human LOXIMVI cells assessed as cell growth at 10 uM incubated for 48 hrs by sulforhodamine B assay relative to control; conditions: read-out: Activity
Hs-578T = assay: Growth inhibition of human Hs 578T cells assessed as cell growth at 10 uM incubated for 48 hrs by sulforhodamine B assay relative to control; conditions: read-out: Activity
UACC-62 [13] = assay: Growth inhibition of human UACC62 cells assessed as cell growth at 0.1 uM incubated for 48 hrs by sulforhodamine B assay relative to control; conditions: UACC-62, 48 h, read-out: Activity
HCC 2998 = assay: Growth inhibition of human HCC2998 cells assessed as cell growth at 100 uM incubated for 48 hrs by sulforhodamine B assay relative to control; conditions: HCC 2998, 48 h, read-out: Activity
786-0 [14] = assay: Growth inhibition of human 786-0 cells assessed as cell growth at 100 uM incubated for 48 hrs by sulforhodamine B assay relative to control; conditions: 786-0, 48 h, read-out: Activity

| Compound | growth at 0.003 µM (NCI-H460 [1]) [%] | growth at 0.03 µM (OVCAR-5) [%] | growth at 30 µM (COLO 205) [%] | growth at 30 µM (RXF 393) [%] | growth at 0.03 µM (UACC-257) [%] | growth at 30 µM (TK-10) [%] | growth at 0.003 µM (SN12C) [%] | growth at 0.03 µM (A549 [2]) [%] | growth at 30 µM (ACHN) [%] | growth at 0.03 µM (OVCAR-8) [%] | growth at 3 µM (SF-295 [3]) [%] | growth at 30 µM (SF-295 [4]) [%] | growth at 0.3 µM (786-0 [5]) [%] | growth at 30 µM (UACC-62 [6]) [%] | growth at 0.3 µM (MCF7) [%] | growth at 30 µM (SNB-75) [%] | growth at 0.03 µM (KM12) [%] | growth at 0.3 µM (UO-31 [7]) [%] | growth at 30 µM (OVCAR-3) [%] | growth at 0.03 µM (NCI-H322M) [%] | also measured |
| --- | --- | --- | --- | --- | --- | --- | --- | --- | --- | --- | --- | --- | --- | --- | --- | --- | --- | --- | --- | --- | --- |
| COc1cc2cc(Oc3ccc(NC(=O)Nc4ccc(Cl)c(C(F)(F)F)c4)cc3)c(C)nc2cc1OC | 106 | 102 | -92 | -80 | 86 | -46 | 98 | 100 | -85 | 94 | -5 | -59 | 93 | -75 | 97 | -44 | 93 | 105 | -87 | 90 | growth at 3 µM (DU-145 [8]): 17%; growth at 0.3 µM (SK-MEL-2): 101%; growth at 0.003 µM (NCI-H23): 97% |
| COc1cc2cc(Oc3ccc(NC(=O)Nc4cc(C(F)(F)F)cc(C(F)(F)F)c4)cc3)c(C)nc2cc1OC |  |  |  |  |  |  |  |  |  |  |  |  |  |  |  |  |  |  |  |  | growth at 0.01 µM (DU-145 [9]): 103%; growth at 100 µM (MOLT-4): -42%; growth at 10 µM (A549 [10]): -31%; growth at 0.01 µM (NCI-H460 [11]): 105%; growth at 0.1 µM (Malme-3M): 87%; growth at 1 µM (HCT-116): 33%; growth at 1 µM (UO-31 [12]): 19%; growth at 10 µM (LOX IMVI): -84%; growth at 10 µM (Hs-578T): -19%; growth at 0.1 µM (UACC-62 [13]): 96%; growth at 100 µM (HCC 2998): -92%; growth at 100 µM (786-0 [14]): -83% |
| COc1cc2cc(Oc3ccc(NC(=O)Nc4ccc(Cl)c(Cl)c4)cc3)c(C)nc2cc1OC |  |  |  |  |  |  |  |  |  |  |  |  |  |  |  |  |  |  |  |  | growth at 0.01 µM (DU-145 [9]): 109%; growth at 100 µM (MOLT-4): -12%; growth at 10 µM (A549 [10]): -9%; growth at 0.01 µM (NCI-H460 [11]): 105%; growth at 0.1 µM (Malme-3M): 105%; growth at 1 µM (HCT-116): 76%; growth at 1 µM (UO-31 [12]): 100%; growth at 10 µM (LOX IMVI): 20%; growth at 10 µM (Hs-578T): -2%; growth at 0.1 µM (UACC-62 [13]): 89%; growth at 100 µM (HCC 2998): -9%; growth at 100 µM (786-0 [14]): -66% |
| Cc1nc2cc(O)c(O)cc2cc1Oc1ccc(NC(=O)Nc2ccc(Cl)c(Cl)c2)cc1 | 102 | 100 | 16 | 7 | 86 | 23 | 100 | 98 | -18 | 93 | 98 | 9 | 95 | -78 | 86 | -4 | 103 | 102 | -29 | 108 | growth at 3 µM (DU-145 [8]): 82%; growth at 0.3 µM (SK-MEL-2): 118%; growth at 0.003 µM (NCI-H23): 96% |
